Experimental findings from patent US5428041A, “Antihypercholesterolemic bis-trifluoromethyl-substituted imidazolines and derivatives thereof” (The Du Pont Merck Pharmaceutical Company, priority 1992, dated 1995) are described below.

A short description of data set [1]: Water solubility of polymorphs. Format: physicochemical. Particulars: compared with the higher melting polymorph.
The nature of data set [2]: Oral bioavailability of polymorphs. It counts as in vivo. Particulars: compared to the higher melting form.
The test system of the next data set is ACAT. Description: Systemic ACAT inhibitory activity. Particulars: oral, compared to the higher melting form. Format: in vivo.
In data set [3] the test system is murine macrophage-like cell line J744.A1. Description: Inhibition of cholesterol esterification in mammalian cells (macrophage). Particulars: Mus musculus; J744.A1 macrophage-like cells loaded with ac-LDL, 14C oleic acid. It counts as cell-based. As for the experimental part: B. Assay of the Inhibition of Cholesterol Esterification in Mammalian Cells The esterification of cholesterol was determined in the murine macrophage-like cell line J744.A1. Cells were seeded in 35 mm wells at a density of 300,000 cells per well in 2 mls of Dulbecco's Modified Eagle Medium (DMEM) supplemented with 10% fetal bovine serum (FBS). Cells were incubated at 37° C. in an atmosphere of 5% CO2 and 93% humidity. After 24 hours the media was changed to 0.68 mls 10% FBS-DMEM containing 34 μg of acetylated human low density lipoprotein (ac-LDL) to increase the intracellular concentration of cholesterol and promote esterification. At 41 hours, various inhibitors were added to the cells in DMSO (10 μl/ml maximum). At 43 hours, the cells were pulsed with 0.1 mM ^14 C oleic acid (10,000 dpm/nmol) complexed with BSA (bovine serum albumin) to follow cholesterol ester formation. The experiment was terminated at 45 hours by washing the monolayers 3 times with 3 ml of Tris-buffered saline at 4° C. The lipids were extracted by incubating the monolayers with 1.5 ml of hexane: isopropanol (3:2, v/v) for 30 min. under gentle agitation. During this period, 10,000 dpm ^3 H-cholesteryl linoleate and 10 μg of cholesteryl oleate were added as an internal standard and carrier respectively. The organic solvent was remoted and the cells were washed with an additional 1.0 ml of hexane: isopropanol which was combined with the original extract. The cells were allowed to dry overnight, digested with 1.5 ml of 0.2 N sodium hydroxide for 1 hour and an aliquot of the solubilized protein used for protein determination using the Lowry method. […] Individual lipids were visualized with iodine and the cholesteryl ester spot cut out and transferred to scintillation vials to determine the amount of radioactivity.

Data set [4] has as its target T1, Acyl-CoA: Cholesterol Acyltransferase (ACAT) (Rattus norvegicus, UniProt Q7TQM4).
T1 construct: centrifuged at 105,000×g for 1 hour to pellet the microsomes; from tissue; host or cells: liver microsomes of fasted male Sprague Dawley rats
T1 sequence (Q7TQM4 1-524): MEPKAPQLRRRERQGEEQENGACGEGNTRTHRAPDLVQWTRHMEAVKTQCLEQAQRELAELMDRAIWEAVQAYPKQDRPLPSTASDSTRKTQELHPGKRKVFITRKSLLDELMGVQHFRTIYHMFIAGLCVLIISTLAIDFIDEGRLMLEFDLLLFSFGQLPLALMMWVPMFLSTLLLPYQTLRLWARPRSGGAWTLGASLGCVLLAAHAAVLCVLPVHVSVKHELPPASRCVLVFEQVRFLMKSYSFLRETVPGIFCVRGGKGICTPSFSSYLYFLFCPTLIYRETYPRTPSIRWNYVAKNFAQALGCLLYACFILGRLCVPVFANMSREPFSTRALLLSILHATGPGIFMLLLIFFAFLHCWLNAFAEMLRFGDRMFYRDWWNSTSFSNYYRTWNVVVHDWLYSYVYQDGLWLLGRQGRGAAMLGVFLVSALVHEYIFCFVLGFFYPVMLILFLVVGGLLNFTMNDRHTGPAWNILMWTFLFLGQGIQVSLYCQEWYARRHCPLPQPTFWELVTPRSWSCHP
Description: Inhibition of Acyl-CoA:Cholesterol Acyltransferase (ACAT) in hepatic microsomes. Format: biochemical, Sprague Dawley rat. Particulars: rat hepatic microsomes, 14C-oleoyl-CoA, 37° C., pH 7.4; read-out: In Vitro ACAT IC50. The procedure:
A. Assay of the Inhibition of Acyl-CoA: Cholesterol Acyltransferase (ACAT) in Hepatic Microsomes
The ability of the compounds to inhibit ACAT, the enzyme responsible for the intracellular synthesis of cholesteryl esters, was tested as follows. Male Sprague Dawley rates weighing 150-300 g were fed rat chow ad libitum. The animals were fasted for twenty-four hours prior to being sacrificed by decapitation. The livers were perfused in situ with 50 ml of cold 0.25M sucrose, excised and homogenized in three volumes of 0.1M phosphate buffer, pH 7.4, that contained 0.5 mM EDTA (ethylenediaminetetraacetic acid), 1.0 mM glutathione, 0.25M sucrose and 20 mM leupeptin. Microsomes were obtained by differential centrifugation; the supernatant from an initial spin at 15,000×g for 15 minutes was centrifuged at 105,000×g for 1 hour to pellet the microsomes. The microsomes were suspended in homogenization buffer, reisolated by centrifugation, and stored at -70° C. Microsomes were used within one month of preparation.
The control assay in a final volume of 200 μl consisted of 200 μg of microsomal protein, 75 μM ^14 C-oleoyl-CoA (10,000 dpm/nmol) in 0.1M phosphate, pH 7.4, that contained 1 mM glutathione. Compounds were added in 5-10 μl of DMSO (dimethyl sulfoxide or ethanol) and additional controls were run with DMSO or ethanol only. All components, except the oleoyl-CoA, were preincubated for 15 min. at 37° C. prior to the initiation of the reaction by the addition of oleoyl CoA. The assay was terminated after 10 min by the addition of 4 ml of chloroform:methanol (2:1, v/v). 20,000 dpm of ^3 H-cholesteryl oleate and 10 μg of unlabeled cholesteryl oleate and oleic acid were added as an internal standard and carrier, respectively. After allowing 10 min. for lipid extraction, 0.8 ml of deionized water was added to separate the solution into two phases. The lower chloroform phase was collected, dried under nitrogen and resuspended in 100 μl of chloroform. The sample containing the neutral lipids was spotted onto a Gelman ITLC-SA polysilicic acid gel-impregnated sheet, which was developed using a hexane: diethyl ether: acetic acid (170:30:1 v/v/v) mobile phase. The lipids were visualized by their interaction with iodine vapor and the cholesteryl ester spot was scraped into a scintillation vial and counted. The specific activity of ACAT in the control incubation averaged 260 pmol/min/mg microsomal protein. The inhibition of ACAT activity by the compounds is shown in Table 7; the data are expressed as the concentration at which ACAT activity is inhibited by 50% (IC50).

For orientation: IC50 means the midpoint of a concentration-inhibition curve.

Structures are written as SMILES. Counter-ions that a name gives are not always drawn.

In the case of `CN(C(=O)c1ccc(C#N)cc1)C1N(C)C(c2ccc(C#N)cc2)=NC1(C(F)(F)F)C(F)(F)F` (centres unmarked) [132°-134° melting polymorph, N-[4,4-bis[trifluoromethyl)-4,5-dihydro-1-methyl-2-[4-cyanophenyl]-1H-imidazol-5-yl]-N-methyl-4-cyanobenzamide], in data set [1], the “water solubility relative to the 181°-183° C. melting polymorph” value came to 3 fold. For the same molecule, in data set [2], the oral bioavailability entry is listed as “greater oral bioavailability”. The “systemic ACAT inhibitory activity” value with ACAT is reported as “improved systemic ACAT inhibitory activity”.

In the case of `CN(C(=O)C12CCC(C)(C(=O)O1)C2(C)C)C1N(C)C(c2ccc(F)cc2)=NC1(C(F)(F)F)C(F)(F)F` (centres unmarked) [Example 26], the values for the IC50 in data set [3] and in data set [4] were 96 µM and 45 µM, respectively.

As for `CC(C)c1ccc(NC(=O)N(C)C2N(C)C(c3ccc(F)cc3)=NC2(C(F)(F)F)C(F)(F)F)cc1` (centres unmarked) [Example 27, N-[4,4-bis(trifluoromethyl)-2-(4-fluorophenyl)-4,5-dihydro-1-methyl-1H-imidazol-5-yl]-N'-4-isopropylphenyl-N-methylurea], the values for the IC50 in data set [3] and in data set [4] were 16 µM and 3 µM, respectively.

As for `CN1C(c2ccc(F)cc2)=NC(C(F)(F)F)(C(F)(F)F)C1NC(=O)c1ccc(N2CCCCC2)cc1` (centres unmarked) [Example 31, N-[4,4-bis(trifluoromethyl)-2-(4-fluorophenyl)-4,5-dihydro-1-methyl-1H-imidazol-5-yl]-4-(1-piperidinyl) benzamide], the results for the IC50 in data set [3] and in data set [4] were 13 µM and 10 µM, respectively.

Turning to `CN1C(c2ccc(N3CCCCC3)cc2)=NC(C(F)(F)F)(C(F)(F)F)C1NC(=O)c1ccc(F)cc1` (centres unmarked) [Example 32, N-[4,4-bis(trifluoromethyl)-4,5-dihydro-1-methyl-2-[4-(1-piperidinyl)phenyl]-1H-imidazol-5-yl]-4-fluorobenzamide], the IC50 in data set [3] amounted to 17 µM; in data set [4], 2 µM.

Take `CCCCCCC(=O)N(C)C1N(C)C(c2ccc(N3CCCCC3)cc2)=NC1(C(F)(F)F)C(F)(F)F` (centres unmarked) [Example 33, N-[4,4-bis(trifluoromethyl)-4,5-dihydro-1-methyl-2-[4-(1-piperidinyl)phenyl]-1H-imidazol-5-yl]-N-methylheptanamide, hydrochloride]: the IC50 was determined as 13 µM in data set [3] and 10 µM in data set [4].

On to `CN(C(=O)c1ccc(F)cc1)C1N(C)C(c2ccc(C#N)cc2)=NC1(C(F)(F)F)C(F)(F)F` (centres unmarked) [Example Q, N-[4,4-bis(trifluoromethyl)-2-(4-cyanophenyl)-4,5-dihydro-1-methyl-1H-imidazol-5-yl]-N-methyl-4-fluorobenzamide], for which the results for the IC50 in data set [3] and in data set [4] were 34 µM and 1.91 µM, respectively.

For the molecule `CN(C(=O)c1ccc(C#N)cc1)C1N(C)C(c2ccc(C#N)cc2)=NC1(C(F)(F)F)C(F)(F)F` (centres unmarked) [Example R, N-[4,4-bis(trifluoromethyl)-4,5-dihydro-1-methyl-2-[4-cyanophenyl]-1H-imidazol-5-yl]-N-methyl-4-cyanobenzamide], the IC50 in data set [3] was 13 µM; in data set [4], 2 µM.
